The values below come from patent US20050124665A1, “Pharmaceutical compositions” (priority 2001, published 2005).

The subject of one assay is Sendai virus. The experiment in a line: Effect on the replication of Sendai virus (virus yield by HAU titration in 37RC cells). It counts as cell-based. As to conditions: Respirovirus muris, in Primates; at 24 hours after infection; monkey kidney 37RC cells infected with SV (5 HAU/10^5 cells); virus yield in supernatant by HAU titration; read-out: ID50 (the 50% inhibitory dose/concentration). The procedure: Methods: Monkey kidney 37RC cells were grown at 37° C. under the conditions described in Example 6 for T cells. The parainfluenza Sendai virus (SV) was grown in the allantoic cavity of 10-day-old embroynated eggs. Viral titre was expressed in haemagglutinating units (HAU) per ml; haemagglutin titration was done according to standard procedures using human 0 Rh+ erythrocytes, as described in C. Amici et al. (J. Virol. 68: 6890-6899, 1994). Confluent monolayers of 37RC cells were infected with SV virus (5 HAU/10^5 cells) for 1 h at 37° C., and then treated with different concentrations of test compounds. Virus yield at 24 hours after infection was determined in the supernatant of infected cells by HAU titration. The results from representative experiments are shown for CTC-73, 74, 83, 84 and 85 (as identified above) in FIGS. 1a, 2a, 3a, 4a and 5a, respectively.

The subject of another assay is NF-κB. As to conditions: at the same concentration (125-500 μM); cited from earlier work.
The next assay addresses T1, HSF1 (Homo sapiens, UniProt Q00613).
T1 sequence (Q00613 1-529): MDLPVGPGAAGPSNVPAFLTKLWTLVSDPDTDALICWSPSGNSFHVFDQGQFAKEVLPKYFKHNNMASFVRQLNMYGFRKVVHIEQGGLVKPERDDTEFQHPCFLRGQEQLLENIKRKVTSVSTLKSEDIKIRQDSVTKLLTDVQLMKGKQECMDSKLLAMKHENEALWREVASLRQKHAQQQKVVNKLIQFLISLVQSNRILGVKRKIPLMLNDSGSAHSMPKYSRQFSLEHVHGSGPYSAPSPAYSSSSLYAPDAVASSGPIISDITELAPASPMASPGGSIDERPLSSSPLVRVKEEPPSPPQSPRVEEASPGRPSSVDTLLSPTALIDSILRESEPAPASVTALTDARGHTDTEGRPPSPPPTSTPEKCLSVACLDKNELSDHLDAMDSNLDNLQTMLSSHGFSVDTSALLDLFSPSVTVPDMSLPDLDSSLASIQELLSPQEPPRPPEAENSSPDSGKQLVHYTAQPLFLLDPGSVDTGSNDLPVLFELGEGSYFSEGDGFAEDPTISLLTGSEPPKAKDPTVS
As to conditions: cited from earlier work.

In the case of `CCCCCCCCC/C=C/CC1CC=CC1=O` (stereo not drawn) [CTC-85, ((E)-5-Dodec-2-enyl)-cyclopent-2-enone], in the assay on Sendai virus, the IC50 amounted to 10 µM.

As for `CCCCCC/C=C\CC1CC=CC1=O` (stereo not drawn) [CTC-83, ((Z)-5-Non-2-enyl)-cyclopent-2-enone], the IC50 with Sendai virus was found to be 10 µM. On to `CCCC/C=C\CC1CC=CC1=O` (stereo not drawn) [CTC-74, ((Z)-5-Hept-2-enyl)-cyclopent-2-enone], for which, in the assay on Sendai virus, the IC50 was determined as 1 µM. As for `CCCCCCCCC/C=C\CC1CC=CC1=O` (stereo not drawn) [CTC-84, ((Z)-5-Dodec-2-enyl)-cyclopent-2-enone], the IC50 with Sendai virus worked out at 7 µM. In the case of `O=C1C=CCC1` [cyclopent-2-en-1-one], in the assay on NF-κB, the “Block of NF-κB activation” value was “able to block NF-κB activation”. In addition, on HSF1, the “Concentration able to activate HSF1 and trigger synthesis of HSP70” value is 125 to 500 µM.
